The target in this test is T1, human CCR1 (Homo sapiens, UniProt P32246).
T1 sequence (P32246 1-355): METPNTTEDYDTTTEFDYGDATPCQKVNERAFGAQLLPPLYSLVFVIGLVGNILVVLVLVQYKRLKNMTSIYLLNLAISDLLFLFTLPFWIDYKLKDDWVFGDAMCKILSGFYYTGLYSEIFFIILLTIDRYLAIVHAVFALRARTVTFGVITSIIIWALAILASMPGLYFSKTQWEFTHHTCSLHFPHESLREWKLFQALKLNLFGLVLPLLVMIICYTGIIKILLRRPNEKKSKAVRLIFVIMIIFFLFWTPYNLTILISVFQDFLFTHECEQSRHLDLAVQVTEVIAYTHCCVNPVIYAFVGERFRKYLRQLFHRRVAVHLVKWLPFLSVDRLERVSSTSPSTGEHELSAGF
In words: CCR1 binding protocol (SPA, [125I]-MIP-1α displacement). The settings on record: cell membrane expressing human CCR1, 0.1 nM [125I]-MIP-1α, 4 hours at ambient temperature; read-out: Relative potency (IC50). On the procedure: The following protocol was used to test compounds for CCR1 binding. A mixture, including scintillation proximity assay (SPA) beads and cell membrane expressing human CCR1, was prepared in assay buffer (130 mM NaCl+5 mM KCl+1 mM MnCl+50 mM Tris HCl at pH 7.4+0.1% bovine serum albumin (BSA)) at the ratio of 50 μg/ml membrane to 10 mg/ml SPA beads. 10 μl of the mixture was transferred to each well of a 384-well assay plate yielding a final concentration for the membrane and SPA beads of 0.5 μg/well and 100 μg/well, respectively
To generate different concentrations of the test compound, compound stocks were prepared using 10 step ½ log dilutions with a high concentration of 10 mM in DMSO and the lowest concentration being DMSO only without compound. An intermediate 40× dilution was then prepared in the assay buffer. The compound was then transferred at 10 μl/well to the assay plate. 0.5 nM [^125 I]-labeled macrophage inflammatory protein-1α (MIP-1α, an endogenous CCR1 ligand) in the assay buffer was transferred to the assay plate at 5 μl/well, for a final ligand concentration of 0.1 nM. The assay plate was then centrifuged at 2500 rpm for 2 minutes and incubated for 4 hours at ambient temperature, at which time the raw data was recorded using microbeta. The IC50 was then calculated using Graphpad Prism.
A word on the IC50: it is the concentration needed to halve the response being measured. Turning to `Cc1noc(C)c1CC(=O)N1CCC[C@@H]1c1nncn1Cc1ccc(Cl)cc1` [Compound 629], the half-maximal inhibitory concentration (IC50) lay within 50 to 500 nM.

`Cc1nnc([C@H]2CCCN2C(=O)Nc2ccc(OC3CCOCC3)nc2)n1Cc1ccc(Cl)cc1` [Compound 551]: the half-inhibitory concentration (IC50) was 500 to 5000 nM.

On to `CC[C@@H](NC(=O)N1C[C@@H](O)C[C@@H]1c1nnc(C)n1Cc1ccc(Cl)cc1)c1ccc(C)o1` [Compound 495], for which the concentration for half-maximal inhibition (IC50) was in the range of 50 to 500 nM. For `O=C(N[C@H]1CCOc2cc(Cl)ccc21)N1CCC[C@@H]1c1nncn1Cc1ccc(Cl)cc1` [Compound 114] the value was less than 50 nM; for `O=C(NC1(c2ccccc2)CC1)N1CCC[C@@H]1c1ncnn1Cc1ccc(Cl)cc1` [Compound 100], 500 to 5000 nM.

Regarding `Cc1noc(C)c1NC(=O)N1CC(F)C[C@@H]1c1nnc(C)n1Cc1ccc(Cl)cc1` (stereo partly shown) [Compound 575], the IC50 was less than 50 nM. For `Cc1noc(C)c1NC(=O)N1CC2CC2[C@@H]1c1nnc(C)n1Cc1ccc(Cl)cc1` (stereo partly shown) [Compound 564] the value was 50 to 500 nM; for `Cc1nnc([C@H]2CCCN2C(=O)Nc2ccc(Cl)cc2C#N)n1Cc1ccc(Cl)cc1` [Compound 417], less than 50 nM. For `Cc1ccc(NC(=O)N2CCC[C@@H]2c2nnc(C)n2Cc2ccc(Cl)cc2)c(Cl)n1` [Compound 394] the value was 50 to 500 nM; for `Cc1nnc([C@H]2C[C@@H](O)CN2C(=O)NCc2ccc(Cl)cc2Cl)n1Cc1ccc(Cl)cc1` [Compound 442], less than 50 nM.

As for `Cc1nnc([C@H]2CCCN2C(=O)N[C@H](C)c2cccnc2)n1Cc1ccc(Cl)cc1` [Compound 140], the IC50 fell in the range of 50 to 500 nM. Consider `Cc1nnc([C@H]2CCCN2C(=O)NCc2cccc(C(F)(F)F)c2)n1Cc1ccc(Cl)cc1` [Compound 145], for which the concentration for half-maximal inhibition (IC50) lay in the range of 50 to 500 nM. For `Cc1nnc([C@H]2CCCN2C(=O)Nc2ccc(Cl)cc2F)n1Cc1ccc(Cl)c(Cl)c1` [Compound 384] the value was 50 to 500 nM; for `Cc1nnc([C@H]2CCCN2C(=O)N[C@H]2CCOc3c(F)ccc(F)c32)n1Cc1ccc(Cl)cc1` [Compound 161], 50 to 500 nM; for `Cc1nnc([C@H]2C[C@@H](O)CN2C(=O)N[C@H]2CCOc3cc(C(F)(F)F)ccc32)n1Cc1ccc(Cl)cc1` [Compound 393], less than 50 nM. As to `CNC(=O)c1ccc(F)c(NC(=O)N2CCC[C@@H]2c2nnc(C)n2Cc2ccc(Cl)cc2)c1` [Compound 301], the IC50 was in the range of 50 to 500 nM. For `Cc1oc(-c2ccccc2)cc1NC(=O)N1CCC[C@@H]1c1nccn1Cc1ccc(Cl)cc1` [Compound 31] the value was less than 50 nM; for `Cc1nc(C(F)(F)F)ccc1CC(=O)N1CCC[C@@H]1c1ncnn1Cc1ccc(Cl)cc1` [Compound 617], 50 to 500 nM. Next, `Cc1cc(C(=O)O)ccc1NC(=O)N1CCC[C@@H]1c1nnc(C)n1Cc1ccc(Cl)cc1` [Compound 240]: 50 to 500 nM; `Cc1nnc([C@H]2CCCN2C(=O)Nc2ccc(C#N)cc2F)n1Cc1ccc(Cl)cc1` [Compound 454]: 50 to 500 nM; `Cc1noc(C)c1NC(=O)N1CCC[C@@H]1c1nnc(C)n1Cc1ccc(Cl)nc1` [Compound 366]: 50 to 500 nM. Next, `Cc1sc(NC(=O)N2CCC[C@@H]2c2nnc(C)n2Cc2ccc(Cl)cc2)nc1-c1ccccc1` [Compound 597]: 500 to 5000 nM; `Cc1nnc([C@H]2CCCN2C(=O)N[C@H]2CCOc3c(F)cccc32)n1Cc1ccc(Cl)cc1` [Compound 149]: less than 50 nM; `Cc1nc(Cl)ccc1NC(=O)N1CCC[C@@H]1c1nnc(C)n1Cc1ccc(Cl)cc1` [Compound 398]: less than 50 nM.

On to `Cc1nnc([C@H]2CCCN2C(=O)NCC2CCOC2)n1Cc1ccc(Cl)cc1` (stereo partly shown) [Compound 594], for which the concentration for half-maximal inhibition (IC50) fell in the range of 500 to 5000 nM. For `Cc1onc(-c2ccccc2)c1NC(=O)N1CCC[C@@H]1c1ncncc1Cc1ccc(Cl)cc1` [Compound 15] the value was less than 50 nM; for `Cc1nnc([C@H]2CCCN2C(=O)N[C@H]2CCOc3cccc(F)c32)n1Cc1ccc(Cl)cc1` [Compound 164], 50 to 500 nM; for `O=C(N[C@H]1CCCOc2ccc(Cl)cc21)N1CCC[C@@H]1c1ncnn1Cc1ccc(Cl)cc1` [Compound 93], 50 to 500 nM. Next, `Cc1nnc([C@H]2CCCN2C(=O)Nc2nnc(C(F)(F)F)s2)n1Cc1ccc(Cl)cc1` [Compound 464]: 500 to 5000 nM. `Cc1cc(C(=O)N(C)C)ccc1NC(=O)N1CCC[C@@H]1c1nnc(C)n1Cc1ccc(Cl)cc1` [Compound 236]: the IC50 is 50 to 500 nM. Next, `Cc1cnccc1NC(=O)N1CCC[C@@H]1c1nnc(C)n1Cc1ccc(Cl)cc1` [Compound 299]: 50 to 500 nM; `NC(=O)c1nnc([C@H]2CCCN2C(=O)Nc2ccc(Cl)cc2F)n1Cc1ccc(Cl)cc1` [Compound 490]: 500 to 5000 nM. Next, `Cc1nnc([C@H]2CCCN2C(=O)Nc2cc(C(F)(F)F)ccc2S(C)(=O)=O)n1Cc1ccc(Cl)cc1` [Compound 423]: 50 to 500 nM; `Cc1nnc([C@H]2CCCN2C(=O)NC2(c3cccc(F)c3)CC2)n1Cc1ccc(Cl)cc1` [Compound 266]: less than 50 nM.

Consider `Cc1cc(C)c(NC(=O)N2CCC[C@@H]2c2nnc(C)n2Cc2ccc(Cl)cc2)c(C(=O)O)c1` [Compound 254], for which the half-inhibitory concentration (IC50) fell in the range of 500 to 5000 nM. As for `CC[C@@H](NC(=O)N1C[C@H](OC(C)=O)C[C@@H]1c1nnc(C)n1Cc1ccc(Cl)cc1)c1ccc(C)o1` [Compound 503], the half-inhibitory concentration (IC50) lay within 500 to 5000 nM. Next, `Cc1cc(C)c(S(=O)(=O)O)cc1NC(=O)N1CCC[C@@H]1c1nnc(C)n1Cc1ccc(Cl)cc1` [Compound 455]: 50 to 500 nM; `Cc1nnc([C@H]2CCCN2C(=O)Nc2cc(C(N)=O)ccc2F)n1Cc1ccc(Cl)cc1` [Compound 294]: 50 to 500 nM. Take `Cc1noc(C)c1NC(=O)N1CCC[C@@H]1c1nnc(C)n1[C@@H](C)c1ccc(Cl)cc1` [Compound 400]: the IC50 was in the range of 500 to 5000 nM. As for `O=C(Nc1ccc(C(F)(F)F)cc1)N1CCC[C@@H]1c1nccn1Cc1ccccc1` [Compound 47], the IC50 was in the range of 500 to 5000 nM.

`COC(=O)c1ccc(F)c(NC(=O)N2CCC[C@@H]2c2nnc(C)n2Cc2ccc(Cl)cc2)c1` [Compound 284]: the 50% inhibitory concentration (IC50) is less than 50 nM. For `Cc1nnc([C@H]2CCCN2C(=O)Nc2ccc(Br)cc2C(F)(F)F)n1Cc1ccc(Cl)cc1` [Compound 197] the value was less than 50 nM; for `Cc1nc(C(F)(F)F)ncc1NC(=O)N1CCC[C@@H]1c1nnc(C)n1Cc1ccc(Cl)cc1` [Compound 431], less than 50 nM.

Turning to `Cc1c(NC(=O)N2CCC[C@@H]2c2nnc(C)n2Cc2ccc(Cl)cc2)ccc(C#N)c1Cl` [Compound 528], the concentration for half-maximal inhibition (IC50) was less than 50 nM. For `Cc1noc(-c2ccccc2)c1NC(=O)N1CCC[C@@H]1c1nnc(Cl)n1Cc1ccc(Cl)cc1` [Compound 187] the value was less than 50 nM; for `Cc1nnc([C@H]2CCCN2C(=O)NC(C)(C)c2ccccc2)n1Cc1ccc(Cl)cc1` [Compound 179], less than 50 nM; for `Cc1nnc([C@H]2CCCN2C(=O)NC(c2ccccc2)c2ccccc2)n1Cc1ccc(Cl)cc1` [Compound 128], less than 50 nM. Regarding `CC[C@H](NC(=O)N1CCC[C@@H]1c1nnc(C)n1Cc1ccc(Br)cc1)c1ccc(C(F)(F)F)nc1` [Compound 561], the half-maximal inhibitory concentration (IC50) is less than 50 nM.

As to `Cc1nnc([C@H]2CCCN2C(=O)N[C@H]2CCOc3c(F)cc(F)cc32)n1Cc1ccc(Cl)cc1` [Compound 153], the IC50 is less than 50 nM. Regarding `Cc1nnc([C@H]2CCCN2C(=O)Nc2ccc3c(c2)CC(C)O3)n1Cc1ccc(Cl)cc1` (stereo partly shown) [Compound 274], the IC50 lay in the range of 50 to 500 nM. Next, `Cc1ncncc1NC(=O)N1CCC[C@@H]1c1nnc(C)n1Cc1ccc(Cl)cc1` [Compound 348]: less than 50 nM.

Turning to `COC(=O)c1ccc(C)c(NC(=O)N2CCC[C@@H]2c2nnc(C)n2Cc2ccc(Cl)cc2)c1` [Compound 193], the IC50 is less than 50 nM. For `CSc1nc(Cl)cc(NC(=O)N2CCC[C@@H]2c2nnc(C)n2Cc2ccc(Cl)cc2)n1` [Compound 255] the value was 500 to 5000 nM. As for `Cc1ccc(C(N)=O)cc1NC(=O)N1CCC[C@@H]1c1nnc(C)n1Cc1ccc(Cl)cc1` [Compound 229], the IC50 was in the range of 50 to 500 nM. Next, `CN1C(=O)COc2ccc(NC(=O)N3CCC[C@@H]3c3ncncc3Cc3ccc(Cl)cc3)cc21` [Compound 17]: 50 to 500 nM. Next, `Cc1nnc([C@H]2CC(C)(O)CN2C(=O)N[C@H]2CCOc3cc(C(F)(F)F)ccc32)n1Cc1ccc(Cl)cc1` (stereo partly shown) [Compound 526]: 50 to 500 nM; `Cc1cc(C)c(NC(=O)N2CCC[C@@H]2c2nnc(C)n2Cc2ccc(Cl)cc2)c(C(=O)N(C)C)c1` [Compound 239]: 50 to 500 nM.

For `Cc1nc(C(F)(F)F)ccc1CC(=O)N1CCC[C@@H]1c1nncn1Cc1ccc(Cl)cc1` [Compound 618], the IC50 was less than 50 nM.

These data come from patent publication US8288371B2, “Ortho pyrrolidine, benzyl-substituted heterocycle CCR1 antagonists for autoimmune diseases and inflammation” (Pharmacopeia, LLC, priority 2007, dated 2012).
